According to patent US20100022401A1, “Avidin-like proteins from symbiotic bacteria” (LICENTIA OY, priority 2004, published 2010):
Where two headings read alike, the source gives them in different places. Marks after values point to notes of the source that are not given here.

Tests used:
[1] = Fluorescent biotin conjugate dissociation assay; type: binding
Protocol: FIG. 2 Biotin dissociation analysis. (A) The [3H]biotin dissociation rate constant was measured at different temperatures. The values for streptavidin are from Klumb et al. (Klumb et al., 1998). The scale of the Y axis is logarithmic. (B) Release of fluorescent biotin conjugate from avidins was studied as a function of time in the presence of excess D-biotin at 50° C.
Ligand binding properties were studied both by [3H]biotin assay and fluorescent biotin conjugate assay. The dissociation rate constant of [3H]biotin (Amersham) from the bradavidins and avidin was measured at various temperatures as described in detail previously (Klumb et al., 1998). According to the results, (Table I, FIG. 2) the faster dissociation rate measured from bradavidin indicates weaker affinity toward the radiobiotin than those of avidin and streptavidin. The dissociation rate of a fluorescent biotin conjugate (ArcDia BF560™-biotin) was measured as previously described (Hytönen et al., 2004a) at 50° C.
The apparent molecular mass is indicated and followed by the theoretical mass in brackets. Transition temperature (Tr) indicates the temperature in which half of the protein is tetrameric and half monomeric in the absence (first value) and presence (second value) of biotin. In addition to the measured dissociation rate constant (kdiss), the release percentage of the fluorescent biotin conjugate in one hour in the presence of excess free biotin is indicated. Calculated isoelectrical point (pI) and the number of cysteine residues per monomer are also indicated.

[2] = radio-biotin; streptavidin values from Klumb et al., 1998; cited from earlier work
[3] = values from Bayer et al., 1996, cited from earlier work

Substance: Streptavidin: bacterial analog for avidin from S. avidinii (SEQ ID NO:7) [reference compound]
- Fluorescent biotin kdiss ([1]; ArcDia BF560-biotin, 50° C.): 7.2e-06 s⁻¹
- Fluorescent biotin conjugate dissociation (in words) ([1]; fluorescent biotin conjugate as ligand): very slow and small release
- Release 1 h of fluorescent biotin conjugate ([1]; one hour, presence of excess free biotin, 50° C.): 5.1%
- [3H]biotin dissociation rate (in words) [2]: fell between these two
- Heat treatment SDS-PAGE Tr (transition temperature) ([3]; absence of biotin): 72^a ° C.
- Heat treatment SDS-PAGE Tr (transition temperature) ([3]; presence of biotin): 100^a ° C.
